Reference: ChEMBL document CHEMBL4266011 (ACS Med Chem Lett, 2018)

Tests used:
[1] = target: Carbonic anhydrase 5A, mitochondrial (Homo sapiens, UniProt P35218)
Description: Inhibition of recombinant human CA5a preincubated for 15 mins prior to testing measured for 10 to 100 secs by phenol red based stopped-flow CO2 hydration assay

Carbonic anhydrase 14 = Carbonic anhydrase 14 (Homo sapiens, UniProt Q9ULX7)
Description: Inhibition of recombinant human CA14 preincubated for 15 mins prior to testing measured for 10 to 100 secs by phenol red based stopped-flow CO2 hydration assay

Carbonic anhydrase 4 = Carbonic anhydrase 4 (Homo sapiens, UniProt P22748)
Description: Inhibition of recombinant human CA4 preincubated for 15 mins prior to testing measured for 10 to 100 secs by phenol red based stopped-flow CO2 hydration assay

Carbonic anhydrase 12 = Carbonic anhydrase 12 (Homo sapiens, UniProt O43570)
Description: Inhibition of recombinant human CA12 preincubated for 15 mins prior to testing measured for 10 to 100 secs by phenol red based stopped-flow CO2 hydration assay

Carbonic anhydrase 13 = Carbonic anhydrase 13 (Homo sapiens, UniProt Q8N1Q1)
Description: Inhibition of recombinant human CA13 preincubated for 15 mins prior to testing measured for 10 to 100 secs by phenol red based stopped-flow CO2 hydration assay

[2] = target: Carbonic anhydrase 5B, mitochondrial (Homo sapiens, UniProt Q9Y2D0)
Carbonic anhydrase 5B, mitochondrial, sequence (Q9Y2D0 whole entry): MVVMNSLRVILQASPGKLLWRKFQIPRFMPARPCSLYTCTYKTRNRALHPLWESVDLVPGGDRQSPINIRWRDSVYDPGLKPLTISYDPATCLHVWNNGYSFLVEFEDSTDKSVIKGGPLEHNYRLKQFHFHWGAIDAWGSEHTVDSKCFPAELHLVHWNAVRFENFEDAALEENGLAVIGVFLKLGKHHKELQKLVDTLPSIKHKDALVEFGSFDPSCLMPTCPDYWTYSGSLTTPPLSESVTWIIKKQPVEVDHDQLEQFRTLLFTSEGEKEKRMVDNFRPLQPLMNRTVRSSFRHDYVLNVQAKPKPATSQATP
Description: Inhibition of recombinant human CA5b preincubated for 15 mins prior to testing measured for 10 to 100 secs by phenol red based stopped-flow CO2 hydration assay

Carbonic anhydrase 3 = Carbonic anhydrase 3 (Homo sapiens, UniProt P07451)
Carbonic anhydrase 3, sequence (P07451 whole entry): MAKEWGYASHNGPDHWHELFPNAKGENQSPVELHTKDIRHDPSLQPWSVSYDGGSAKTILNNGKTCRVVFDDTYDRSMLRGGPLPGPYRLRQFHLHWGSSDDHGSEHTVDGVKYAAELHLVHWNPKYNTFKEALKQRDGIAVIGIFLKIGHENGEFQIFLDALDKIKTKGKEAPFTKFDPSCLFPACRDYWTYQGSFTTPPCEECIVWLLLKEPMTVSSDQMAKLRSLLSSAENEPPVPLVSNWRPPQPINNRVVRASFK
Description: Inhibition of recombinant human CA3 preincubated for 15 mins prior to testing measured for 10 to 100 secs by phenol red based stopped-flow CO2 hydration assay

Carbonic anhydrase 9 = Carbonic anhydrase 9 (Homo sapiens, UniProt Q16790)
Carbonic anhydrase 7 = Carbonic anhydrase 7 (Homo sapiens, UniProt P43166)
Carbonic anhydrase 7, sequence (P43166 whole entry): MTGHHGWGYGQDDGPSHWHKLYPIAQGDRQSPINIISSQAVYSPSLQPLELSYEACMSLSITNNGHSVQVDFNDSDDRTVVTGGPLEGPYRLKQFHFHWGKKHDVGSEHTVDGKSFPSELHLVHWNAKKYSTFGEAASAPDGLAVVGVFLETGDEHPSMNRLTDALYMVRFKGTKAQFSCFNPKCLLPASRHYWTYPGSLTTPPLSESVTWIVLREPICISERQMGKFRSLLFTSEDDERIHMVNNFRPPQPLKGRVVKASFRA
Description: Inhibition of recombinant human CA7 preincubated for 15 mins prior to testing measured for 10 to 100 secs by phenol red based stopped-flow CO2 hydration assay

Carbonic anhydrase 6 = Carbonic anhydrase 6 (Homo sapiens, UniProt P23280)
Carbonic anhydrase 6, sequence (P23280 whole entry): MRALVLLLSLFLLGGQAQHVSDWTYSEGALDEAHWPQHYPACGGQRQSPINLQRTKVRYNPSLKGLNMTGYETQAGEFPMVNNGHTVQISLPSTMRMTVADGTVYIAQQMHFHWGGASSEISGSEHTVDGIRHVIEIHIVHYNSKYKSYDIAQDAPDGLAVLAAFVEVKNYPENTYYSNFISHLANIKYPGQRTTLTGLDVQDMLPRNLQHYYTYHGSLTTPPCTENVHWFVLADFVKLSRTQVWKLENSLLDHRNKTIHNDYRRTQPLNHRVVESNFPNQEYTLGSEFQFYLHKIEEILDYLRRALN
Description: Inhibition of recombinant human CA6 preincubated for 15 mins prior to testing measured for 10 to 100 secs by phenol red based stopped-flow CO2 hydration assay

Carbonic anhydrase 12, sequence (O43570 whole entry): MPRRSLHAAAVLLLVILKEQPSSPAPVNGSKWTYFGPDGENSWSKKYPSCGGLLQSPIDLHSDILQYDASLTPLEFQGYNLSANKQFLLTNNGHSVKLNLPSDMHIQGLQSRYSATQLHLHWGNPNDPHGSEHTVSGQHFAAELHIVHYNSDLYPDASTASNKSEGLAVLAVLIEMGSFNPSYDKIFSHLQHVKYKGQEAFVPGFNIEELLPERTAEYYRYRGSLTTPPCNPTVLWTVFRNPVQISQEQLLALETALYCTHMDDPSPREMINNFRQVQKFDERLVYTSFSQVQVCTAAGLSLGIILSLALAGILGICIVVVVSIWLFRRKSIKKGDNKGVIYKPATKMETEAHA
Carbonic anhydrase 5A, mitochondrial, sequence (P35218 whole entry): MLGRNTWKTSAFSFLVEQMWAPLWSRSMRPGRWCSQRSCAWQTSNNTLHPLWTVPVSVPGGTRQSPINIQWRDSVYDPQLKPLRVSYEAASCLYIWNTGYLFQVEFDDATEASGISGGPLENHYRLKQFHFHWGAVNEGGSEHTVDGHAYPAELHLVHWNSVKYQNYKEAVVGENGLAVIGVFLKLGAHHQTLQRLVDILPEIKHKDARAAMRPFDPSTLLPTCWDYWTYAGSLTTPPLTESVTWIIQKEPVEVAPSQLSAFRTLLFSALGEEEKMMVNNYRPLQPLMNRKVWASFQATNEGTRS
Carbonic anhydrase 14, sequence (Q9ULX7 whole entry): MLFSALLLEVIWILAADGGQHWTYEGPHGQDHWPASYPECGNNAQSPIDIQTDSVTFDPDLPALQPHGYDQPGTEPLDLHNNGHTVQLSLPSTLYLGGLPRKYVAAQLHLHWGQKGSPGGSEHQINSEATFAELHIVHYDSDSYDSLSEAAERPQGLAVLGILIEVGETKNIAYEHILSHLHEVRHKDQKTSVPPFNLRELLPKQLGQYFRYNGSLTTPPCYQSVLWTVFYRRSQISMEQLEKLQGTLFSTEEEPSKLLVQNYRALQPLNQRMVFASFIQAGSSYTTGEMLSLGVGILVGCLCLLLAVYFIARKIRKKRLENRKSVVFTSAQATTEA
Carbonic anhydrase 13, sequence (Q8N1Q1 whole entry): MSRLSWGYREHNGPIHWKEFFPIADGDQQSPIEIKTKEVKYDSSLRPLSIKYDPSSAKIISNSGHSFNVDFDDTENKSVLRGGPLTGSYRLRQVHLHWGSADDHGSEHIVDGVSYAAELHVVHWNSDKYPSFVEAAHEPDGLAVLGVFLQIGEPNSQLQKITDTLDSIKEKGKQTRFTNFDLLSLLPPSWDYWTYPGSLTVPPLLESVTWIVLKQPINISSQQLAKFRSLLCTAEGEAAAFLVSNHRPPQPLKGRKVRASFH
Carbonic anhydrase 4, sequence (P22748 whole entry): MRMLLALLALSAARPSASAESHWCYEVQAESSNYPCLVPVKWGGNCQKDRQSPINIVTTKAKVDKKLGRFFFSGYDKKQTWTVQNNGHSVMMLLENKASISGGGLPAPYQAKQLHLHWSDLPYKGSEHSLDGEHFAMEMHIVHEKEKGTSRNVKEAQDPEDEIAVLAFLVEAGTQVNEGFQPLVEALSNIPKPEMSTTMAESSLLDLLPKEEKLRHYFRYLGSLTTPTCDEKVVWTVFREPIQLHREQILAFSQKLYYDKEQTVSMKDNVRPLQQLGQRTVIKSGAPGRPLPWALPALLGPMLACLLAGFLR

Ki [1]: 1430 nM | Ki (Carbonic anhydrase 14): 677 nM | Ki (Carbonic anhydrase 4): 939 nM | Ki (Carbonic anhydrase 12): 45.3 nM | Ki (Carbonic anhydrase 13): 172 nM | Ki [2]: 5.33 µM | Ki (Carbonic anhydrase 3): > 10 µM | Ki (Carbonic anhydrase 9): 126 nM | Ki (Carbonic anhydrase 7): 3 nM | Ki (Carbonic anhydrase 6): 98.2 nM
SMILES: NC(N)=Nc1nc(CSCCC(N)=NS(N)(=O)=O)cs1 [FAMOTIDINE]
